Data: ChEMBL document CHEMBL4118072, “2-Substituted-thio-N-(4-substituted-thiazol/1H-imidazol-2-yl)acetamides as BACE1 inhibitors: Synthesis, biological evaluation and docking studies” (Eur J Med Chem, 2017)

What was measured:
Beta-secretase 1 [1] = biological target: T1, Beta-secretase 1 (Homo sapiens, UniProt P56817); test: Inhibition of BACE1 (unknown origin) at 10 uM using Rh-EVNLDAEFK-Quencher as substrate after 60 mins by FRET assay relative to control
[2] = Cytotoxicity against HEK293 cells assessed as decrease in cell viability after 72 hrs by CellTiter Glo luminescent assay; type: cell-based; conditions: human
in vitro = conditions: PAMPA
Description: Permeability of the compound at 25 ug/ml after 18 hrs by PAMPA

Beta-secretase 1 [3] = biological target: T1, Beta-secretase 1; test: Inhibition of BACE1 (unknown origin) at 50 uM using Rh-EVNLDAEFK-Quencher as substrate after 60 mins by FRET assay relative to control
Beta-secretase 1 [4] = biological target: T1, Beta-secretase 1; test: Inhibition of BACE1 (unknown origin) using Rh-EVNLDAEFK-Quencher as substrate after 60 mins by FRET assay
Beta-secretase 1 [5] = biological target: T1, Beta-secretase 1; test: Inhibition of BACE1 (unknown origin) at 1 uM using Rh-EVNLDAEFK-Quencher as substrate after 60 mins by FRET assay
Beta-secretase 1 [6] = biological target: T1, Beta-secretase 1; test: Binding affinity to BACE1 (unknown origin) by SPR method

T1 sequence (P56817 whole entry): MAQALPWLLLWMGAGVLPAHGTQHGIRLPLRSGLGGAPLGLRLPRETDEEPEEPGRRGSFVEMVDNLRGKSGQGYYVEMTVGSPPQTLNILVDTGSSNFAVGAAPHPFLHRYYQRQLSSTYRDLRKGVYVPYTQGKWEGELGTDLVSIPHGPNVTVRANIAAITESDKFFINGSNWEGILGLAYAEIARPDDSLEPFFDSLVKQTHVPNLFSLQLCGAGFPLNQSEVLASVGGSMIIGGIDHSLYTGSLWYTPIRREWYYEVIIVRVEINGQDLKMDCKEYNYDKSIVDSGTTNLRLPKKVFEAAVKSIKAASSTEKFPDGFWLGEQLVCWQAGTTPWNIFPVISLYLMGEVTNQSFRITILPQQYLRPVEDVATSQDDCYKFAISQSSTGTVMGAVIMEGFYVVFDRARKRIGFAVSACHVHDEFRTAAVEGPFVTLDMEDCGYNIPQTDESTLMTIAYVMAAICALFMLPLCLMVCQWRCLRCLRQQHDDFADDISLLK

| inhibition (Beta-secretase 1 [1]) | Papp at 18 h, 25 ug/ml (in vitro) | inhibition (Beta-secretase 1 [3]) | IC50 (Beta-secretase 1 [4]) | inhibition (Beta-secretase 1 [5]) | Kd (Beta-secretase 1 [6]) | SMILES | CC50 at 72 h [2] |
| --- | --- | --- | --- | --- | --- | --- | --- |
| 24.5% | 0.07 ×10⁻⁶ cm/s | 79.9% | 13.5 µM | – | – | CCOc1cccc(-c2nc(SCC(=O)Nc3nc(-c4cc(Cl)c(N)c(Cl)c4)cs3)[nH]c(=O)c2C#N)c1 | > 50 µM |
| 2.5% | – | 4.7% | – | – | – | CCOc1cccc(-c2nc(SCC(=O)Nc3nc(-c4cc(Cl)c(NC(C)=O)c(Cl)c4)cs3)[nH]c(=O)c2C#N)c1 | – |
| 87.7% | 0.34 ×10⁻⁶ cm/s | – | 3.2 µM | 26.4% | 0.169 µM | COc1cccc(-c2nc(SCC(=O)Nc3nc(-c4cc(Cl)c(N)c(Cl)c4)c[nH]3)[nH]c(=O)c2C#N)c1 | > 50 µM |
| 14.3% | 0.94 ×10⁻⁶ cm/s | 90.4% | 17.5 µM | – | 1.74 µM | COc1cccc(-c2nc(SCC(=O)Nc3nc(-c4cccc(Br)c4)cs3)[nH]c(=O)c2C#N)c1 | > 50 µM |
| – | 5.9 ×10⁻⁶ cm/s | – | – | – | – | Clc1cccc(Cl)c1N=C1NCCN1 [CLONIDINE] | – |
| 58.9% | 0.11 ×10⁻⁶ cm/s | 91.8% | 7.7 µM | – | 0.861 µM | COc1cccc(-c2nc(SCC(=O)Nc3nc(-c4cc(Cl)c(N)c(Cl)c4)cs3)[nH]c(=O)c2C#N)c1 | > 50 µM |
| 0.3% | – | 1.4% | – | – | – | COc1cccc(-c2nc(SCC(=O)Nc3nc(-c4cc(Cl)c(NC(C)=O)c(Cl)c4)cs3)[nH]c(=O)c2C#N)c1 | – |
| – | – | – | – | – | – | CN[C@@H]1C[C@H]2O[C@@](C)([C@@H]1OC)n1c3ccccc3c3c4c(c5c6ccccc6n2c5c31)C(=O)NC4 [STAUROSPORINE] | 0.00354 µM |
| 6.1% | – | 39.6% | – | – | – | N#Cc1c(-c2cccc(OC(F)(F)F)c2)nc(SCC(=O)Nc2nc(-c3cc(Cl)c(N)c(Cl)c3)cs2)[nH]c1=O | – |
| 13% | 0.88 ×10⁻⁶ cm/s | 86.1% | 13.4 µM | – | 1.33 µM | N#Cc1c(-c2cccc(C(F)(F)F)c2)nc(SCC(=O)Nc2nc(-c3cc(Cl)c(N)c(Cl)c3)cs2)[nH]c1=O | 47.7 µM |
